The subject of assay [1] is Pseudomonas aeruginosa ATCC 27853 planktonic and biofilm cultures. Type of assay: cell-based. The note with it: for Fold Tolerance (MBEC:MBC100) / MBEC / MBC100: MSVP; for MBEC: biofilm; for MIC: minimal media (MSVP), did not change with exposure time, mean ± SD of 28 trials; for MBC100: planktonic.
Assay [2] shares this test system. Type of assay: cell-based. Particulars: for MBEC: biofilm; for MBEC / MBC100 / Fold Tolerance (MBEC:MBC100): LB+B1; for MBC100: planktonic; for MIC: rich media (LB+B1), 4 replicates.
For assay [3], the system named is Pseudomonas aeruginosa ATCC 27853 cell populations. In kind it is cell-based.
In assay [4] the test system is Escherichia coli JM109 planktonic and biofilm bacteria. Type of assay: cell-based. Particulars: LB+B1, 24 h exposure; for MIC: E. coli JM109; for MBEC: E. coli JM109 biofilm; for MBC: E. coli JM109 planktonic.
Assay [5] has as its system Staphylococcus aureus ATCC 29213 planktonic and biofilm bacteria. In kind it is cell-based. Particulars: LB+B1, 24 h exposure; for MIC: S. aureus ATCC 29213; for MBEC: S. aureus ATCC 29213 biofilm; for MBC: S. aureus ATCC 29213 planktonic.
For assay [6], the system named is Pseudomonas aeruginosa ATCC 27853 planktonic and biofilm bacteria. Type of assay: cell-based. The note with it: LB+B1, 24 h exposure; for MIC: P. aeruginosa ATCC 27853; for MBEC: P. aeruginosa ATCC 27853 biofilm; for MBC: P. aeruginosa ATCC 27853 planktonic.
In assay [7] the test system is Pseudomonas aeruginosa biofilms. The assay can be described thus: Metal and antibiotic combination assay. In kind it is cell-based. The note with it: for MBC / MBEC / MIC: median of 4 replicates. The method, then: Cells were grown to a mean density of 6.0×10^6 cfu/peg in LB+B1 media.
• 1. […] All data are median values based on 4 replicates.

The test system of assay [8] is Pseudomonas aeruginosa 15442. The assay can be described thus: Synergy matrix assay of polycide versus metals. In kind it is cell-based.
The next assay has as its system P. aeruginosa biofilms. Particulars: after 100 h of exposure; cited from earlier work.
Assay [9] relates to Escherichia coli JM109 planktonic and biofilm bacteria. The assay can be described thus: MBEC-HTP antibiotic susceptibility, E. coli. Type of assay: cell-based. The note with it: CA-MHB, 24 h exposure. The procedure: (§1) Luria-Bertani medium was chosen for two reasons: 1) its established use in studies of metal resistance, and 2) because of the use of rich media in NCCLS testing protocols for antimicrobial resistance. Antibiotic resistance assays were performed using cation-adjusted Mueller-Hinton broth (CA-MHB, BDH Inc.) and subcultures, MBC and MBEC bacterial counts were performed using trypticase soy agar (TSA, Difco).
(§2) The present study used a novel high throughput method for screening biofilm susceptibility to metal cations and oxyanions: the MBEC device (MBEC Bioproducts Inc., Edmonton, Alberta, Canada, http://www.mbec.ca). The MBEC high throughput (MBEC-HTP) assay system consists of a shallow trough into which a plastic lid with 96 pegs fits. This peg lid also fits over a standard 96-well microtitre plate which can subsequently be used to setup serial dilutions of antimicrobial compounds. The bottom half of the MBEC device is a trough that has shallow channels that direct flow of an inoculated suspension over the pegs on the lid.
(§3) The inoculum was standardized to a 1.0 McFarland standard and verified by viable counts. The 1.0 McFarland standard inoculum was diluted 30-fold with growth media, which served as the growth suspension to inoculate the MBECJ device.
(§4) P. aeruginosa was incubated for 9 h, S. aureus for 24 h and E. coli for 24 h to generate approximately equivalent biofilms of 6.0×10^6 cfu/peg. Following the incubation period, growth of biofilm and planktonic cultures in the MBECJ device were discerned and verified by viable cell counts.
(§5) Chloramphenicol (Sigma) was prepared in 50% ethanol and treated identically to the other antibiotics. 10% ethanol was added to the growth controls for chloramphenicol assays. […] Starting with the working solutions, serial two-fold dilutions were made in the wells of a 96-well plate (the challenge plate), leaving the first well of each row as a sterility control and the second as a growth control (i.e. no antibiotic).

In assay [10] the test system is Pseudomonas aeruginosa ATCC 27853 planktonic and biofilm bacteria. Description: MBEC-HTP antibiotic susceptibility, P. aeruginosa. In kind it is cell-based. The note with it: CA-MHB, 24 h exposure. The procedure:
as §1, §2, §3, §4, §5

[11] abbreviates: antibiotic or heavy metal alone, LB+B1.

The structures appear in SMILES notation. ≈ marks a conversion by molar mass, not a printed value. Where “and” joins values, the source holds several entries; their conditions need not be identical. Identical values can stand only once. Like-named read-outs stand apart in the source and are kept apart here. Marks after values point to notes of the source that are not given here.

For the compound `O=S(=O)([O-])[O-].[Zn+2]` [Zn^2+, zinc sulphate], the “Fold Tolerance (MBEC:MBC100)” value is recorded as 2.3 in assay [1] (exposure time 10 h) and 1.0 in assay [1] (exposure time 27 h). Besides, the MBEC in [1] (exposure time 2 to 8 h) is >125 mM; in assay [1] (exposure time 10 h), “≧256 mM”; in [1] (exposure time 27 h), 102 ± 47 mM; in assay [2] (exposure time 2 or 27 h), >125 mM; in [4], 31 ± 0 mM; in assay [5] it was >125 mM. Moreover, the MBEC is >125 mM in assay [6] and >8192 µg/mL in [7] (setting [11]). Moreover, the MIC in assay [1] was 9.5 mM and 9.5 ± 3.3 mM; in assay [2], 78 ± 31 mM; in assay [4], 2.2 ± 0.7 mM; in [5], 2.0 ± 0 mM; in [6] it was 78 ± 31 mM; in assay [7] (setting [11]), 4096 µg/mL. Moreover, the MBC100 is on record as >125 mM in assay [1] (exposure time 2 to 8 h), 109 ± 31 mM in assay [1] (exposure time 10 h), 102 ± 47 mM in [1] (exposure time 27 h) and >125 mM in [2] (exposure time 2 or 27 h). In [3] (2 h exposure, FIG. 2 Panel A), the biofilm killed is on record as 90-99%. The “concentration tolerated by the surviving population” value in assay [3] (less than 0.1% survival of biofilm and planktonic cell populations) was > 125 mM. For the same compound, the MBC is 31 ± 0 mM in assay [4], >125 mM in assay [5], >125 mM in assay [6] and >8192 µg/mL in [7] (setting [11]). Moreover, in [8], the “synergistic effect on polycide activity” value is on record as “did not appear to have any synergistic effect”.
Take `O=C(O)c1cn(C2CC2)c2cc(N3CCNCC3)c(F)cc2c1=O` [Ciprofloxacin]: in assay [7] (200 μg/ml Cu^2+), the “MBEC in the presence of Cu^2+, times less than the MBEC for the antibiotic alone” value was “at least 16 times”. Besides, the MBC in [7] (Pseudomonas aeruginosa, antibiotic in combination with 200 μg/ml Cu^2+, read-out: MBC) was found to be 8 µg/mL; in assay [7] (Pseudomonas aeruginosa, antibiotic in combination with 500 μg/ml Zn^2+, read-out: MBC) it was 32 µg/mL; in assay [7] (Pseudomonas aeruginosa, antibiotic or heavy metal alone, LB+B1, read-out: MBC) it was 8 µg/mL. For the same compound, the MIC in assay [7] (Pseudomonas aeruginosa, antibiotic in combination with 200 μg/ml Cu^2+, read-out: MIC) is 4 µg/mL; in [7] (Pseudomonas aeruginosa, antibiotic in combination with 500 μg/ml Zn^2+, read-out: MIC), 0.25 to 1 µg/mL. Also, the MBEC is 16** μg/ml in assay [7] (antibiotic in combination with 200 μg/ml Cu^2+) and >64 µg/mL in [7] (antibiotic in combination with 500 μg/ml Zn^2+). Besides, in the assay with P. aeruginosa biofilms, the “log10 reduction in viable cell counts of biofilms” value is reported as < 1.5 log10.
Turning to `O.O.O.O.O.O=S(=O)([O-])[O-].[Cu+2]` [Cu^2+, cupric sulphate], the “Fold Tolerance (MBEC:MBC100)” value stood at 2.0 in assay [1] (exposure time 8 to 10 h); 2.0 in [1] (exposure time 4 h); 1.7 in assay [1] (exposure time 6 h); 1.1 in assay [1] (exposure time 27 h); 4.5 in assay [2] (exposure time 2 h); 1.0 in [2] (exposure time 27 h). The MBEC in [1] (exposure time 8 to 10 h) is reported as 32 ± 0 mM; in [1] (exposure time 2 h), “≧258 mM”; in assay [1] (exposure time 4 h) it was 64 ± 45 mM; in [1] (exposure time 6 h), 36 ± 20 mM; in assay [1] (exposure time 27 h), 21 ± 11 mM; in assay [2] (exposure time 2 h), 72 ± 40 mM. Moreover, the MBEC in assay [2] (exposure time 27 h) stood at 16 ± 0 mM; in assay [4], 13 ± 4 mM; in assay [5] it was 2.0 ± 0 mM; in [6], 14 ± 4.0 mM; in assay [7] (setting [11]), 1024 µg/mL. The MIC in assay [1] is 3.8 ± 1.9 mM; in assay [2] it was 12 ± 5 mM; in [4], 4.5 ± 1.4 mM; in assay [5], 2.0 ± 0 mM; in assay [6] it was 12 ± 5 mM; in assay [7] (setting [11]), 512 to 1024 µg/mL. Also, the MBC100 in [1] (exposure time 8 to 10 h) was 16 ± 0 mM; in assay [1] (exposure time 2 h) it was 20 ± 8 mM; in [1] (exposure time 4 h) it was 32 ± 0 mM; in assay [1] (exposure time 6 h) it was 21 ± 14 mM; in assay [1] (exposure time 27 h) it was 19 ± 11 mM; in assay [2] (exposure time 2 h), 16 ± 0 mM. In [2] (exposure time 27 h), this compound showed an MBC100 of 16 ± 0 mM. For the same compound, the “eradication of the biofilm cultures with extended exposure times” value in assay [3] (27 hours exposure) is on record as “complete eradication”. The MBC in [4] is 15 ± 3 mM; in assay [5], 2.0 ± 0 mM; in [6], 14 ± 4.0 mM; in assay [7] (setting [11]) it was 1024 µg/mL. For the same compound, in assay [8] (adding as little as 16 micrograms per ml of the metal), the “effect on the efficacy of the polycide” value is listed as “quadruple”.
Turning to `NC[C@H]1O[C@H](O[C@H]2[C@H](O)[C@@H](O[C@H]3O[C@H](CO)[C@@H](O)[C@H](N)[C@H]3O)[C@H](N)C[C@@H]2N)[C@H](N)C[C@@H]1O` [Tobramycin], the figures for the MBEC in assay [9] (E. coli JM109 biofilm) and in [10] (P. aeruginosa ATCC 27853 biofilm) were 16 ± 0 µg/mL and 112 ± 32 µg/mL, respectively. Also, the MIC in assay [9] (Escherichia coli, E. coli JM109, read-out: MIC) was determined as 4 µg/mL (≈ 8.56 µM); in [10] (Pseudomonas aeruginosa, ATCC27853, P. aeruginosa ATCC 27853, read-out: MIC), 14 ± 4 µg/mL (≈ 29.9 µM). The MBC in assay [9] (Escherichia coli, E. coli JM109 planktonic, read-out: MBC) was found to be 8 µg/mL (≈ 17.1 µM); in assay [10] (Pseudomonas aeruginosa, ATCC27853, P. aeruginosa ATCC 27853 planktonic, read-out: MBC) it was 28 ± 8 µg/mL (≈ 59.9 µM). Moreover, the “log10 reduction in viable cell counts of biofilms” value in the assay with P. aeruginosa biofilms is “less than 0.5 log10”.

Values taken from US20080118573A1, “Use of Heavy Metals in the Treatment of Biofilms” (priority 2004, published 2008).
